This is an account of results in patent publication US20110281744A1, “METHOD OF IDENTIFYING COMPOUNDS THAT MODULATE REGULATION OF IRON RESPONSE ELEMENTS” (priority 2007, published 2011).

In one test the test system is DMT1. As to conditions: cited from earlier work.
A further test relates to iron uptake. As to conditions: through reduction in IRE(+) DMT1 mRNA; cited from earlier work.
A further test relates to ferritin mRNA. Kind of test: Polysome analysis with northern blot: ferritin mRNA translation in treated cultured cells. In kind it is cell-based. The conditions noted are these: cells treated overnight with iron or iron plus desferal; FIG. 1B right panel. The protocol: (§1) FIG. 1A top panel is a graph showing polysome analysis with optical density as a function of percent sucrose. Total RNA is isolated from cultured cells by lysing the cells in polysome extraction buffer (15 mM Tris, pH 7.6, 0.3 M NaCl, 15 mM MgCl2 and 1% Triton X-100) containing 100 ng/ml cyclohexamide and 1 mg/ml heparin. The lysates are then layered onto a 10-50% sucrose gradient and centrifuged at 38,000 rpm for 2 hrs. The gradients are fractionated by monitoring UV absorbance at 254 nm.
(§2) FIG. 1A bottom panel is a northern blot showing Actin and Ferratin RNA. RNA was isolated from each fraction using RNeasy 96 Universal Tissue Kit (Qiagen) then loaded on a agarose gel and subjected to northern analysis with the appropriate probe. The high molecular weight fractions (6-12) represent those for which protein synthesis is occurring.
(§3) FIG. 1B are northern blots showing the indicated RNA. Cells were treated overnight with either iron oriron plus desferal to chelate iron and RNA was isolated and analyzed as described above.

The next test concerns actin mRNA. Kind of test: Polysome analysis with northern blot: actin mRNA translation in treated cultured cells (control). Format: cell-based. The conditions noted are these: cells treated overnight with iron or iron plus desferal; FIG. 1B left panel. Here is the method: as §1, §2, §3
The test system of test [1] is TfR. As to conditions: melanoma cells; cited from earlier work.
The subject of the next test is melanoma cells. The conditions noted are these: cited from earlier work.
The test system of a further test is IRP. The conditions noted are these: curcumin treatment; cited from earlier work.
In test [2] the test system is TfR. As to conditions: curcumin treatment; cited from earlier work.
A further test concerns ferritin. The conditions noted are these: curcumin treatment; cited from earlier work.

Read-outs that look alike come from different tables or passages of the source. Ends that are not written are not given here.

“hepcidin (DTHFPICIFCCGCCHRSKCGMCCKT; ends and bridges not checked; cysteine pairing not given here; UniProt P81172 60-84, looked up) [a naturally occurring peptide]”: in the test with DMT1, the “DMT1 protein isoforms with or without IRE” value was “reduces DMT1 protein isoforms containing the IRE, but not those lacking the IRE”. Moreover, the iron uptake entry in the test on iron uptake is listed as “significantly reduce iron uptake”.

For the compound `[Fe]` [iron], in the test with ferritin mRNA, the “effect on ferritin translation (polysome distribution of ferritin mRNA)” value was “ferritin translation increases”. In addition, the “effect on translation of actin mRNA” value with actin mRNA is “neither iron nor deseferal treatment had an effect”.

Regarding `O=C1O[C@H]([C@@H](O)CO)C([O-])=C1O.[Na+]` [sodium ascorbate, Sodium ascorbate], in the test on TfR [1], the TfR level entry is “reduction in TfR”. In the test on melanoma cells, the “cell death (apoptosis)” value was “apoptosis” and the intracellular iron entry is “reduced intracellular iron”.

Consider `COc1cc(/C=C/C(=O)CC(=O)/C=C/c2ccc(O)c(OC)c2)ccc1O` [curcumin, Curcumin], for which the IRP activation entry with IRP was “increased IRP activation”. Moreover, the TfR level entry in the test with TfR [2] is “increase in TfR”. Moreover, in the test with ferritin, the ferritin level result is given as “decrease in ferritin”.

With `CC(=O)N(O)CCCCCNC(=O)CCC(=O)N(O)CCCCCNC(=O)CCC(=O)N(O)CCCCCN` [desferal], the “effect on ferritin translation (polysome distribution of ferritin mRNA)” value in the test with ferritin mRNA is “inhibits translation”. In the test on actin mRNA, the “effect on translation of actin mRNA” value is “neither iron nor deseferal treatment had an effect”.
